Experiment: In vitro integrity of tracers in buffer at physiological pH by HPLC
Type: physicochemical
Details: incubated at physiological pH for up to 6 h

In the case of ^99mTc(CO)3(PMIDA) [^99mTc-1], the “in vitro stability (decomposition by HPLC)” value was “No measurable decomposition”.
